Results published in patent publication US20120046273A1, “COMPOUNDS AND COMPOSITIONS FOR COGNITION-ENHANCEMENT, METHODS OF MAKING, AND METHODS OF TREATING” (MITHRIDION, INC., priority 2009, published 2012).

Tests used:
[1] = target: T1, human muscarinic M1 receptors (Homo sapiens, UniProt P11229); test: Inositol phosphate production in huM1/A9L cells (IPOne TR-FRET); assay type: cell-based; settings: for huM1/A9L Smax: percentage of maximal stimulation by carbachol; for huM1/A9L ED50 relative to CCh: potency relative to carbachol
T1 construct: expressed in transfected cells; host or cells: A9L cells (gift from Professor W Messer)
T1 sequence (P11229 1-460): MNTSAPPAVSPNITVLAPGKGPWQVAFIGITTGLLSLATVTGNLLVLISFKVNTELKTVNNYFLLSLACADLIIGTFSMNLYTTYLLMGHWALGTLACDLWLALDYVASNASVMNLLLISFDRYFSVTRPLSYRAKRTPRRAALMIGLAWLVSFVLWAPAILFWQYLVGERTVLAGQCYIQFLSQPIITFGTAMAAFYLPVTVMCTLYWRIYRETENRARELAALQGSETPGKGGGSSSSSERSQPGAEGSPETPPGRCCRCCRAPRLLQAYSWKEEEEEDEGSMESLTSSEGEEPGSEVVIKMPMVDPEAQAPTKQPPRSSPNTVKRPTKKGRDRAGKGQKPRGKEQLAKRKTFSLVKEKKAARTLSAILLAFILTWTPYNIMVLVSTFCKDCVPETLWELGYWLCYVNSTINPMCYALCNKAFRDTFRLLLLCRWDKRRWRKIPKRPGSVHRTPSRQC
Description: (§1) Muscarinic M1 and M3 agonist activity was evaluated by measuring the stimulation of inositol phosphate (IP) production in the presence of lithium chloride from A9L cells transfected with expression plasmids containing human muscarinic M1 and M3 receptors, respectively. The cell lines were a gift from Professor W Messer, and the methods were as described in Tejada F R et al. J. Med. Chem. 2006; 49: 7518-31 except that the assay was scaled down to run in 384 well plates, and IP was measured in the cell lysates using the non-isotopic IPOne TR-FRET assay (CIS-BIO, Inc).
(§2) Cells were grown to 90% confluence in 384 well hi-base plates (Greiner Bio-One), compounds were added at suitable concentrations in growth medium containing 10 mM LiCL, buffered with an extra 10 mM HEPES (pH7.4), and incubated for 60 minutes at 37° C. Cells were lysed and assayed for IP following the manufacturer's instructions.
(§3) The value for a full agonist is 100%, while partial agonists give values below 100%.

[2] = target: T2, human muscarinic M3 receptors (Homo sapiens, UniProt P20309); test: Inositol phosphate production in huM3/A9L cells (IPOne TR-FRET); assay type: cell-based; settings: for huM3/A9L Smax: percentage of maximal stimulation by carbachol; for huM3/A9L ED50 relative to CCh: potency relative to carbachol
T2 construct: expressed in transfected cells; host or cells: A9L cells (gift from Professor W Messer)
T2 sequence (P20309 whole entry): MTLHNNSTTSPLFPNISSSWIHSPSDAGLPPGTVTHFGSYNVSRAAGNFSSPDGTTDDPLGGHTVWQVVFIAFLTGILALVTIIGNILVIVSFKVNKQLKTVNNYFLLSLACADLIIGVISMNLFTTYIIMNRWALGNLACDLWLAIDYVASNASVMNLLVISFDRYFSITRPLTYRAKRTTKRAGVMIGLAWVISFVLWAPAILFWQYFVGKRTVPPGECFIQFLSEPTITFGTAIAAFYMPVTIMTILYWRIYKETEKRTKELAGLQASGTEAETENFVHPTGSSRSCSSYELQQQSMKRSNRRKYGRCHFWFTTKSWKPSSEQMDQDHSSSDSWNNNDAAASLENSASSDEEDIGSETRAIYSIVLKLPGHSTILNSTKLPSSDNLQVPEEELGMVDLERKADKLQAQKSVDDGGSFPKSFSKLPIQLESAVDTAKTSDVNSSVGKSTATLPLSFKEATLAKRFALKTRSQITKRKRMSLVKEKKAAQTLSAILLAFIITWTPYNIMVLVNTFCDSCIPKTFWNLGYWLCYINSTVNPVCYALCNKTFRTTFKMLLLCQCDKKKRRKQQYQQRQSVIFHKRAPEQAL
Description: as §1, §2, §3

[3] = test system: pooled male human liver microsomes; test: Metabolism by human liver microsomes; assay type: in vitro ADME; settings: 6 hours incubation
Description: (§4) Compounds were incubated with pooled male human liver microsomes (BD Biosciences, #452172) and an NADP-regenerating system in a phosphate buffer (pH 7.4) for a total of 6 hours. Aliquots were removed every 2 hours, and 1% formic acid was added to halt the reaction. Samples were centrifuged, filtered through 0.2 micron spinfilter and the amount of each compound in the supernatants was quantitated using LC/MS/MS.

[4] = test system: pooled male Sprague-Dawley rat liver microsomes; test: Metabolism by rat liver microsomes; assay type: in vitro ADME; settings: 6 hours incubation
Description: as §4, with “Sprague-Dawley rat” for “human”, “#452501)” for “#452172)”

Row | Compound | huM1/A9L Smax [1] [%] | huM1/A9L ED50 relative to CCh [1] | huM3/A9L Smax [2] [%] | huM3/A9L ED50 relative to CCh [2] | extent of metabolism in human liver microsomes [3] | extent of metabolism in rat liver microsomes [4]
1 | [2H]C([2H])([2H])c1noc(C2CCCNC2)n1 (single isomer, unassigned) [Compound 90, 3-(methyl-d3)-5-(piperidin-3-yl)-1,2,4-oxadiazole] | 81 | +/− (potency 0.5-2x CCh) | 76 | −− (potency <0.1x CCh) | metabolized significantly less in human liver microsomes than in rat liver microsomes | far more stable than compounds 126 and 127
2 | Cc1noc([C@@H]2CNC[C@@H](C)C2)n1 [Compound 105] | 18 | inactive | 14 | inactive |  | 
3 | Cc1noc([C@H]2CNC[C@@H](C)C2)n1 [Compound 104] | 9 | inactive | 20 | inactive |  | 
4 | Cc1noc(C2CCC(C)NC2)n1 (centres unmarked) [Compound 102, 3-Methyl-5-(6-methylpiperidin-3-yl)-1,2,4-oxadiazole] | 14 | inactive | 18 | inactive |  | 
5 | Cc1noc(C2CCNC2)n1 (centres unmarked) [Compound 115, 3-methyl-5-(pyrrolidin-3-yl)-1,2,4-oxadiazole] |  | + (potency 2-10x CCh) |  | − (potency <0.5-0.1x CCh) |  | 
6 | CCc1noc(C2CCCNC2)n1 (centres unmarked) [Compound 128, 3-ethyl-5-(piperidin-3-yl)-1,2,4-oxadiazole, reference compound] | 15 | inactive | <14 | inactive |  | 
7 | Cc1noc(C2CCCNC2)n1 (single isomer, unassigned) [Compound 84, 3-methyl-5-(piperidin-3-yl)-1,2,4-oxadiazole] | 129 | + (potency 2-10x CCh) | 66 | +/− (potency 0.5-2x CCh) | metabolized significantly less in human liver microsomes than in rat liver microsomes | far more stable than compounds 126 and 127
8 | Cc1noc(C2CCCN(C)C2)n1 (centres unmarked) [Compound 86, 3-Methyl-5-(1-methylpiperidin-3-yl)-1,2,4-oxadiazole] | 20 | inactive | 20 | inactive |  | 
9 | Nc1noc(C2CCCNC2)n1 (centres unmarked) [Compound 111, 3-Amino-5-(piperidin-3-yl)-1,2,4-oxadiazole] | 97 | + (potency 2-10x CCh) | 20 | +/− (potency 0.5-2x CCh) |  | 
10 | Cc1noc([C@@H]2CCCN[C@@H]2C)n1 [Compound 108] | 41 | −− (potency <0.1x CCh) | 32 | inactive |  | 
11 | Cc1noc([C@H]2CC[C@H](C)NC2)n1 [Compound 103] | 15 | inactive | 34 | inactive |  | 
12 | Cc1noc([C@H]2CCCN[C@@H]2C)n1 [Compound 109] | 3 | inactive | 20 | inactive |  | 
